# Target: PD-1/PD-L1 (Homo sapiens (Human), UniProt Q9NZQ7)
# Test: PD-1/PD-L1 Homogeneous Time-Resolved Fluorescence (HTRF) binding assay
# Details: 3 nM PD1, 10 nM PD-L1, 25° C., PBS pH 7.4
# Method: PD-1/PD-L1 Homogeneous Time-Resolved Fluorescence (HTRF) Binding Assay
# The assays were conducted in a standard black 384-well polystyrene plate with a final volume of 20 μL. Inhibitors were first serially diluted in DMSO and then added to the plate wells before the addition of other reaction components. The final concentration of DMSO in the assay was 1%. The assays were carried out at 25° C. in the PBS buffer (pH 7.4) with 0.05% Tween-20 and 0.1% BSA. Recombinant human PD-L1 protein (19-238) with a Histag at the C-terminus was purchased from AcroBiosystems (PD1-H5229). Recombinant human PD-1 protein (25-167) with Fe tag at the C-terminus was also purchased from AcroBiosystems (PD1-H5257). PD-L1 and PD-1 proteins were diluted in the assay buffer and 10 μL was added to the plate well. Plates were centrifuged and proteins were preincubated with inhibitors for 40 minutes. The incubation was followed by the addition of 10 μL of HTRF detection buffer supplemented with Europium cryptate-labeled anti-human IgG (PerkinElmer-AD0212) specific for Fe and anti-His antibody conjugated to SureLight®-Allophycocyanin (APC, PerkinElmer-AD0059H). After centrifugation, the plate was incubated at 25° C. for 60 min. before reading on a PHERAstar FS plate reader (665 nm/620 nm ratio). Final concentrations in the assay were—3 nM PD1, 10 nM PD-L1, 1 nM europium anti-human IgG and 20 nM anti-His-Allophycocyanin. IC50 determination was performed by fitting the curve of percent control activity versus the log of the inhibitor concentration.
# Sequence of PD-1/PD-L1 (Q9NZQ7 19-238): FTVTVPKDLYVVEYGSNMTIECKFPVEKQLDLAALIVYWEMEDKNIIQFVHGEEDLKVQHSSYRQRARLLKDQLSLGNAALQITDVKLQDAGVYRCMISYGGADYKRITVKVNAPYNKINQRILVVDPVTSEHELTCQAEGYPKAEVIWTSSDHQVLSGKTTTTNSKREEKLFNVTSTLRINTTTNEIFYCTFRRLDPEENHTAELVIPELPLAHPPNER
row,SMILES,IC50
1,"O=C1CC[C@@H](CN2C(=O)CCc3cc(-c4cccc(-c5cccc(-c6ccc7c(c6)CCC(=O)N7C[C@@H]6CCC(=O)N6)c5Cl)c4Cl)ccc32)N1 [Compound 281, 6,6′-(2,2′-dichloro-[1,1′-biphenyl]-3,3′-diyl)bis(1-(((S)-5-oxopyrrolidin-2-yl)methyl)-3,4-dihydroquinolin-2(1H)-one)]",26.7 nM
2,O=C1CC[C@@H](CN2CCCc3cc(-c4cccc(-c5cccc(-c6ccc7c(c6)CCCN7C[C@@H]6CCC(=O)N6)c5Cl)c4Cl)ccc32)N1 [Compound 303],187 nM
3,Nc1cc2c(cc1-c1cccc(-c3cccc(-c4cc5c(cc4N)N(C[C@@H]4CCC(=O)N4)C(=O)CO5)c3Cl)c1Cl)OCC(=O)N2C[C@@H]1CCC(=O)N1 [Compound 354],2180 nM
4,O=C1CC[C@@H](Cn2c(=O)cnc3cc(-c4cccc(-c5cccc(-c6ccc7c(c6)ncc(=O)n7C[C@@H]6CCC(=O)N6)c5Cl)c4Cl)ccc32)N1 [Compound 361],1.75 nM
5,CC1(C)Oc2cc(-c3cccc(-c4cccc(-c5ccc6c(c5)OC(C)(C)C(=O)N6C[C@@H]5CCC(=O)N5)c4Cl)c3Cl)ccc2N(C[C@@H]2CCC(=O)N2)C1=O [Compound 372],≥ 3000 nM
6,O=C1COc2cc(-c3cccc(-c4cccc(-c5ccc6c(c5)OCC(=O)N6CCn5cncn5)c4Cl)c3Cl)ccc2N1CCn1cncn1 [Compound 374],68.2 nM
7,O=C1COc2cc(-c3cccc(-c4cccc(-c5ccc6c(c5)OCC(=O)N6CCn5cccn5)c4Cl)c3Cl)ccc2N1CCn1cccn1 [Compound 375],2710 nM
8,O=C1CC[C@@H](CN2C(=O)COc3cc(-c4cccc(-c5cccc(-c6cc(Cl)c7c(c6)OCC(=O)N7C[C@@H]6CCC(=O)N6)c5Cl)c4Cl)cc(Cl)c32)N1 [Compound 376],200 nM
9,O=C1COc2cc(-c3cccc(-c4cccc(-c5ccc6c(c5)OCC(=O)N6CCO)c4Cl)c3Cl)ccc2N1CCO [Compound 378],69.7 nM
10,CC1(C)Cc2cc(-c3cccc(-c4cccc(-c5cnc6c(c5)OC(C)(C)C(=O)N6C[C@@H]5CCC(=O)N5)c4Cl)c3Cl)cnc2N(C[C@@H]2CCC(=O)N2)C1=O [Compound 382],≥ 3000 nM
11,O=C1NCCN1CCN1C(=O)COc2cc(-c3cccc(-c4cccc(-c5ccc6c(c5)OCC(=O)N6CCN5CCNC5=O)c4Cl)c3Cl)ccc21 [Compound 384],260 nM
12,O=C1COc2cc(-c3cccc(-c4cccc(-c5ccc6c(c5)OCC(=O)N6CCN5CCNC5=O)c4Cl)c3Cl)ccc2N1 [Compound 385],264 nM
13,O=C1CCCN1CCN1C(=O)COc2cc(-c3cccc(-c4cccc(-c5ccc6c(c5)OCC(=O)N6CCN5CCCC5=O)c4Cl)c3Cl)ccc21 [Compound 394],471 nM
14,O=C1CC[C@@H](CN2C(=O)COc3cc(-c4cccc(-c5cccc(-c6cc(F)c7c(c6)OCC(=O)N7C[C@@H]6CCC(=O)N6)c5Cl)c4Cl)cc(F)c32)N1 [Compound 396],11.7 nM
15,"N#CCN1C(=O)COc2cc(-c3cccc(-c4cccc(-c5ccc6c(c5)OCC(=O)N6CC#N)c4Cl)c3Cl)ccc21 [Compound 397, 2,2′-((2,2′-dichloro-[1,1′-biphenyl]-3,3′-diyl)bis(3-oxo-2,3-dihydro-4H-benzo[b][1,4]oxazine-7,4-diyl))diacetonitrile]",305 nM
16,O=C1CC[C@@H](CN2C(=O)COc3cc(-c4cccc(-c5cccc(-c6cnc7c(c6)OCC(=O)N7C[C@@H]6CCC(=O)N6)c5Cl)c4Cl)cnc32)N1 [Compound 401],9.78 nM
17,CC(=O)N1CCC(N2C(=O)COc3cc(-c4cccc(-c5cccc(-c6ccc7c(c6)OCC(=O)N7C6CCN(C(C)=O)CC6)c5Cl)c4Cl)ccc32)CC1 [Compound 408],571 nM
18,O=C1COc2cc(-c3cccc(-c4cccc(-c5ccc6c(c5)OCC(=O)N6Cc5nn[nH]n5)c4Cl)c3Cl)ccc2N1Cc1nn[nH]n1 [Compound 412],≥ 3000 nM
19,O=C1N[C@@H](CN2C(=O)COc3cc(-c4cccc(-c5cccc(-c6ccc7c(c6)OCC(=O)N7C[C@H]6COC(=O)N6)c5Cl)c4Cl)ccc32)CO1 [Compound 413],7.05 nM
20,O=C1COc2cc(-c3cccc(-c4cccc(-c5ccc6c(c5)OCC(=O)N6Cc5ncc[nH]5)c4Cl)c3Cl)ccc2N1Cc1ncc[nH]1 [Compound 415],104 nM
21,COC(=O)N[C@H](C(=O)N1CCC[C@H]1CN1C(=O)COc2cc(-c3cccc(-c4cccc(-c5ccc6c(c5)OCC(=O)N6C[C@@H]5CCCN5C(=O)[C@@H](NC(=O)OC)C(C)C)c4Cl)c3Cl)ccc21)C(C)C [Compound 422],≥ 3000 nM
22,N#Cc1cncc(CCN2C(=O)COc3cc(-c4cccc(-c5cccc(-c6ccc7c(c6)OCC(=O)N7CCc6cncc(C#N)c6)c5Cl)c4Cl)ccc32)c1 [Compound 427],68.7 nM

row,SMILES,IC50
1,"O=C1COc2cc(-c3cccc(-c4cccc(-c5ccc6c(c5)OCC(=O)N6C[C@@H]5CCC(=O)N5)c4Cl)c3Cl)ccc2N1 [Compound 429, (S)-7-(2,2′-dichloro-3′-(3-oxo-3,4-dihydro-2H-benzo[b][1,4]oxazin-7-yl)-[1,1′-biphenyl]-3-yl)-4-((5-oxopyrrolidin-2-yl)methyl)-2H-benzo[b][1,4]oxazin-3(4H)-one]",20.8 nM
2,N#Cc1cncc(CN2C(=O)COc3cc(-c4cccc(-c5cccc(-c6ccc7c(c6)OCC(=O)N7Cc6cncc(C#N)c6)c5Cl)c4Cl)ccc32)c1 [Compound 430],≥ 3000 nM
3,O=C1CC[C@H](CN2C(=O)COc3cc(-c4cccc(-c5cccc(-c6ccc7c(c6)OCC(=O)N7C[C@H]6CCC(=O)N6)c5Cl)c4Cl)ccc32)N1 [Compound 448],5.45 nM
4,O=C1CC(CN2C(=O)COc3cc(-c4cccc(-c5cccc(-c6ccc7c(c6)OCC(=O)N7C[C@@H]6CCC(=O)N6)c5Cl)c4Cl)ccc32)CN1 (stereo partly shown) [Compound 450],6.47 nM
5,O=C1CC[C@@H](CN2C(=O)COc3nc(-c4cccc(-c5cccc(-c6ccc7c(n6)OCC(=O)N7C[C@@H]6CCC(=O)N6)c5Cl)c4Cl)ccc32)N1 [Compound 457],8.78 nM
6,CC(C)[C@H](N)C(=O)N1CCC[C@H]1CN1C(=O)COc2cc(-c3cccc(-c4cccc(-c5ccc6c(c5)OCC(=O)N6C[C@@H]5CCCN5C(=O)[C@@H](N)C(C)C)c4Cl)c3Cl)ccc21 [Compound 459],436 nM
7,CC(=O)NCCNCCN1C(=O)COc2cc(-c3cccc(-c4cccc(-c5ccc6c(c5)OCC(=O)N6CCNCCNC(C)=O)c4Cl)c3Cl)ccc21 [Compound 461],4.06 nM
8,O=C1CC[C@@H](CN2C(=O)COc3nc(-c4cccc(-c5cccc(-c6cnc7c(n6)OCC(=O)N7C[C@@H]6CCC(=O)N6)c5Cl)c4Cl)cnc32)N1 [Compound 466],5 nM
9,O=C(O)C1CCN(CCN2C(=O)COc3cc(-c4cccc(-c5cccc(-c6ccc7c(c6)OCC(=O)N7CCN6CCC(C(=O)O)C6)c5Cl)c4Cl)ccc32)C1 (stereo not shown) [Compound 469],4.02 nM
10,CN(CCO)CCN1C(=O)COc2cc(-c3cccc(-c4cccc(-c5ccc6c(c5)OCC(=O)N6CCN(C)CCO)c4Cl)c3Cl)ccc21 [Compound 471],4.7 nM
11,O=C(O)[C@@H]1C[C@H](O)CN1CCN1C(=O)COc2cc(-c3cccc(-c4cccc(-c5ccc6c(c5)OCC(=O)N6CCN5C[C@@H](O)C[C@H]5C(=O)O)c4Cl)c3Cl)ccc21 [Compound 478],8.76 nM
12,O=C(O)CNCCCN1C(=O)COc2cc(-c3cccc(-c4cccc(-c5ccc6c(c5)OCC(=O)N6CCCNCC(=O)O)c4Cl)c3Cl)ccc21 [Compound 479],6.02 nM
13,O=C(O)[C@@H]1C[C@@H](O)CN1CCN1C(=O)COc2cc(-c3cccc(-c4cccc(-c5ccc6c(c5)OCC(=O)N6CCN5C[C@@H](O)C[C@H]5C(=O)O)c4Cl)c3Cl)ccc21 [Compound 482],6.72 nM
14,O=C(O)[C@H]1C[C@@H](O)CN1CCN1C(=O)COc2cc(-c3cccc(-c4cccc(-c5ccc6c(c5)OCC(=O)N6CCN5C[C@H](O)C[C@@H]5C(=O)O)c4Cl)c3Cl)ccc21 [Compound 484],6.53 nM
15,O=C1CC[C@@H](CN2C(=O)COc3cc(-c4cccc(-c5cccc(-c6ccc7c(c6)OCC(=O)N7CCN6C[C@H](O)C[C@@H]6C(=O)O)c5Cl)c4Cl)ccc32)N1 [Compound 488],6.2 nM
16,CC(=O)NCCNCCN1C(=O)COc2cc(-c3cccc(-c4cccc(-c5ccc6c(c5)OCC(=O)N6C[C@@H]5CCC(=O)N5)c4Cl)c3Cl)ccc21 [Compound 489],6.31 nM
17,O=C(O)CCCCNCCN1C(=O)COc2cc(-c3cccc(-c4cccc(-c5ccc6c(c5)OCC(=O)N6CCNCCCCC(=O)O)c4Cl)c3Cl)ccc21 [Compound 490],3.51 nM
18,O=C(O)CCNCCN1C(=O)COc2cc(-c3cccc(-c4cccc(-c5ccc6c(c5)OCC(=O)N6CCN5CC[C@H](O)C5)c4Cl)c3Cl)ccc21 [Compound 491],5.22 nM
19,O=C1CC[C@@H](CN2C(=O)COc3cc(-c4cccc(-c5cccc(-c6ccc7c(c6)OCC(=O)N7CCN6CC[C@H](O)C6)c5Cl)c4Cl)ccc32)N1 [Compound 492],3.15 nM
20,O=C(O)C1CCN(CCN2C(=O)COc3cc(-c4cccc(-c5cccc(-c6ccc7c(c6)OCC(=O)N7CCNCCO)c5Cl)c4Cl)ccc32)C1 (stereo not shown) [Compound 493],5.59 nM
21,O=C(O)C1CCCCN1CCN1C(=O)COc2cc(-c3cccc(-c4cccc(-c5ccc6c(c5)OCC(=O)N6CCN5CCCCC5C(=O)O)c4Cl)c3Cl)ccc21 (stereo not shown) [Compound 513],8.23 nM
